According to ChEMBL document CHEMBL3217431, “Synthesis, in silico screening and bioevaluation of dispiro-cycloalkanones as antitubercular and mycobacterial NAD+-dependent DNA ligase inhibitors” (Medchemcomm, 2011):
In brackets after ≈: the same amount, converted by molar mass. Activity calls are given as the source filed them. The calls are words filed in the database; no cut-off is given here.

Columns and labels:
[1] = system: Mycobacterium tuberculosis; assay: Antitubercular activity against Mycobacterium tuberculosis H37Rv assessed as growth inhibition after 30 days by agar microdilution method; assay type: functional
[2] = Inhibition of nick joining activity of Mycobacterium tuberculosis full length NAD+-dependent DNA ligase using [gamma32P]ATP-labeled nicked 40 bp DNA as substrate
DNA ligase 1 = DNA ligase 1 (Homo sapiens, UniProt P18858); assay: Inhibition of nick joining activity of human DNA ligase 1 using [gamma32P]ATP-labeled nicked 40 bp DNA as substrate
Chain of DNA ligase 1 (P18858 whole entry): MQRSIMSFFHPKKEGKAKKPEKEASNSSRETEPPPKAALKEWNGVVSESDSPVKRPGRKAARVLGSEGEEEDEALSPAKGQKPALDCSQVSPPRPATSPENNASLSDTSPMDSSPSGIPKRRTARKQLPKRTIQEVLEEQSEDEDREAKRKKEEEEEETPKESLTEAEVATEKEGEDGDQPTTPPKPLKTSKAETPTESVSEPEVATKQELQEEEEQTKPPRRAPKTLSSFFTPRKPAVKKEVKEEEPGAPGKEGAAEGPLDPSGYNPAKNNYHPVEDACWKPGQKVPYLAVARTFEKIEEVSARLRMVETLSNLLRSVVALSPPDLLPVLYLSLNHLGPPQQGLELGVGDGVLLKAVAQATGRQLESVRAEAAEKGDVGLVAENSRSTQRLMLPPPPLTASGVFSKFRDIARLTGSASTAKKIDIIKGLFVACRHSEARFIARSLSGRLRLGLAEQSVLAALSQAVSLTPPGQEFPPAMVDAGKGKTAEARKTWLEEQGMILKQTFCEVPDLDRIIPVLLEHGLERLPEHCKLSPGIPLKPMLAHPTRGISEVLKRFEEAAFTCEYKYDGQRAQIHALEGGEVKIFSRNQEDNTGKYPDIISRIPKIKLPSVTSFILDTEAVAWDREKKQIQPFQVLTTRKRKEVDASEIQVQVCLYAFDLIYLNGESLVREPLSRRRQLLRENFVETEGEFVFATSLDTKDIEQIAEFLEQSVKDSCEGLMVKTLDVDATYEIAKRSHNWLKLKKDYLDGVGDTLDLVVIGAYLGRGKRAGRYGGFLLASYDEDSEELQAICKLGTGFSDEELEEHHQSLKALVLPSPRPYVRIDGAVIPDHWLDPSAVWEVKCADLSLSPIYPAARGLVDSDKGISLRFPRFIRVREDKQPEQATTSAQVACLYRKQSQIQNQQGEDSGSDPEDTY

DNA ligase = biological target: T1, DNA ligase (Enterobacteria phage T4, UniProt P00970); assay: Inhibition of nick joining activity of ATP-dependent bacteriophage T4 DNA ligase using [gamma32P]ATP-labeled nicked 40 bp DNA as substrate; design: species or system Tequatrovirus T4
T1 sequence (P00970 whole entry): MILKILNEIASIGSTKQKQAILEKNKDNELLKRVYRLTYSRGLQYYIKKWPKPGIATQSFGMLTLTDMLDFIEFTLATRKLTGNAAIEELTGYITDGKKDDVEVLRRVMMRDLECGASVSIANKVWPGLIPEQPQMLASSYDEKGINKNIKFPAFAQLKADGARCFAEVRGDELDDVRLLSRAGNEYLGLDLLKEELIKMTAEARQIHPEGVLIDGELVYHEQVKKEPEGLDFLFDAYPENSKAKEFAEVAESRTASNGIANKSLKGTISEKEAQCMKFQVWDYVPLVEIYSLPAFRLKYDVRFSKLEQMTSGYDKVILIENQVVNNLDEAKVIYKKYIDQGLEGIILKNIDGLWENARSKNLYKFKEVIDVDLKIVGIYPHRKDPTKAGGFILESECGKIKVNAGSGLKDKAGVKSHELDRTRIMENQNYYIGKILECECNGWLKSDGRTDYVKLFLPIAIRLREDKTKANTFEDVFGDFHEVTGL

Escherichia coli [3] = assay: In vivo antibacterial activity against Escherichia coli GR501 harboring lig251 temperature-sensitive mutant gene transformed with control plasmid pTrc99A assessed as growth inhibition after 20 hrs by microdilution assay; assay type: functional; conditions: GR501, 20 h
Escherichia coli [4] = assay: In vivo antibacterial activity against Escherichia coli GR501 harboring temperature-sensitive lig251 mutant gene transformed with plasmid encoding T4 DNA ligase assessed as growth inhibition after 20 hrs by microdilution assay; assay type: functional; conditions: GR501, 20 h
[5] = Competitive inhibition of nick joining activity of Mycobacterium tuberculosis full length NAD+-dependent DNA ligase using [gamma32P]ATP-labeled nicked 40 bp DNA as substrate by double reciprocal plot assay in presence of rising concentrations of NAD+
Calf thymus DNA = assay: Binding affinity to calf thymus DNA up to 250 uM by ethidium bromide displacement assay; assay type: nucleic-acid assay; conditions: Bos taurus
[6] = Binding affinity to plasmid DNA (unknown origin) by gel electrophoresis mobility shift assay
Salmonella typhimurium [7] = assay: In vivo antibacterial activity against wild type Salmonella typhimurium LT2 assessed as growth inhibition after 20 hrs by microdilution assay; assay type: functional, Salmonella enterica subsp. enterica serovar Typhimurium; conditions: Salmonella enterica, LT2, 20 h
[8] = Ratio of IC50 for ATP-dependent bacteriophage T4 DNA ligase to IC50 for Mycobacterium tuberculosis full length NAD+-dependent DNA ligase
[9] = Ratio of IC50 for human DNA ligase 1 to IC50 for Mycobacterium tuberculosis full length NAD+-dependent DNA ligase
Salmonella typhimurium [10] = assay: In vivo antibacterial activity against DNA ligase deficient Salmonella typhimurium variant TT15151 expressing […] T4 DNA ligase gene assessed as growth inhibition after 20 hrs by microdilution assay; assay type: functional, Salmonella enterica subsp. enterica serovar Typhimurium; conditions: Salmonella enterica, TT15151, 20 h

SMILES: O=C(C1CC1c1ccc(OCc2ccccc2)cc1)C1CC1c1ccc(OCc2ccccc2)cc1 (centres undefined)
- MIC90 [1]: 26.3 µM (≈ 12.5 µg/mL)

SMILES: CC[C@@H](CO)NCCN[C@@H](CC)CO [ETHAMBUTOL]
- MIC90 [1]: 15.9 µM (≈ 3.25 µg/mL)

SMILES: O=C1C2(CCCC13CC3c1ccccc1)CC2c1ccccc1 (centres undefined)
- MIC90 [1]: > 30 µM
- IC50 [2]: 180 µM
- IC50 (DNA ligase 1): 130 µM
- IC50 (DNA ligase): 210 µM

SMILES: COc1cc(C2CC23CCCC2(CC2c2cc(OC)c(OC)c(OC)c2)C3=O)cc(OC)c1OC (centres undefined)
- MIC90 [1]: 25.9 µM (≈ 12.5 µg/mL)

SMILES: O=C1C2(CCCC13CC3c1ccc(Br)cc1)CC2c1ccc(Br)cc1 (centres undefined)
- MIC (Escherichia coli [3]): 8.6 µM (≈ 3.96 µg/mL)
- MIC (Escherichia coli [4]): 65.2 µM (≈ 30 µg/mL)
- Ki [5]: 5.9 µM
- Activity (Calf thymus DNA): inactive
- Activity [6]: inactive
- MIC (Salmonella typhimurium [7]): 43.4 µM (≈ 20 µg/mL)
- MIC90 [1]: 13.5 µM (≈ 6.21 µg/mL)
- IC50 [2]: 7.3 µM
- IC50 (DNA ligase 1): 58.6 µM
- Ratio IC50 [8]: 8
- IC50 (DNA ligase): 70.2 µM
- Ratio IC50 [9]: 8
- MIC (Salmonella typhimurium [10]): 76 µM (≈ 35 µg/mL)

SMILES: O=C1C2(CCC13CC3c1ccc(F)cc1)CC2c1ccc(F)cc1 (centres undefined)
- MIC90 [1]: > 30 µM

SMILES: COc1ccc(C2CC23CCCCC2(CC2c2ccc(OC)cc2)C3=O)cc1 (centres undefined)
- MIC90 [1]: > 30 µM

SMILES: O=C1C2(CCCCC13CC3c1ccc(Cl)cc1)CC2c1ccc(Cl)cc1 (centres undefined)
- MIC90 [1]: > 30 µM

SMILES: COc1ccc(C2CC23CCCC2(CC2c2ccc(OC)cc2)C3=O)cc1 (centres undefined)
- MIC90 [1]: > 30 µM

SMILES: COc1ccc(C2CC23CCCC2(CC2c2ccc(OC)c(OC)c2)C3=O)cc1OC (centres undefined)
- MIC90 [1]: 29.6 µM (≈ 12.5 µg/mL)

SMILES: COc1ccc(C2CC23CCCCC2(CC2c2ccc(OC)c(OC)c2)C3=O)cc1OC (centres undefined)
- MIC90 [1]: 28.6 µM (≈ 12.5 µg/mL)

SMILES: O=C1C2(CCC13CC3c1ccc(OCc3ccccc3)cc1)CC2c1ccc(OCc2ccccc2)cc1 (centres undefined)
- MIC90 [1]: 25 µM (≈ 12.5 µg/mL)

SMILES: O=C1C2(CCCC13CC3c1ccc(Cl)cc1)CC2c1ccc(Cl)cc1 (centres undefined)
- MIC90 [1]: 16.8 µM (≈ 6.24 µg/mL)
- IC50 [2]: 12 µM
- IC50 (DNA ligase 1): 18.5 µM
- IC50 (DNA ligase): 20.2 µM

SMILES: O=C1C2(CCCC13CC3c1ccc(F)cc1)CC2c1ccc(F)cc1 (centres undefined)
- MIC (Escherichia coli [3]): 5.9 µM (≈ 2 µg/mL)
- MIC (Escherichia coli [4]): 178 µM (≈ 60.1 µg/mL)
- Activity (Calf thymus DNA): inactive
- Activity [6]: inactive
- MIC (Salmonella typhimurium [7]): 29.5 µM (≈ 9.98 µg/mL)
- MIC90 [1]: > 30 µM
- IC50 [2]: 8.6 µM
- IC50 (DNA ligase 1): 45.4 µM
- Ratio IC50 [8]: 4
- IC50 (DNA ligase): 33.4 µM
- Ratio IC50 [9]: 5
- MIC (Salmonella typhimurium [10]): 148 µM (≈ 50 µg/mL)

SMILES: COc1cc(C2CC23CCCCC2(CC2c2cc(OC)c(OC)c(OC)c2)C3=O)cc(OC)c1OC (centres undefined)
- MIC90 [1]: 25.2 µM (≈ 12.5 µg/mL)

SMILES: O=C1C2(CCC13CC3c1ccc(Br)cc1)CC2c1ccc(Br)cc1 (centres undefined)
- MIC90 [1]: 28 µM (≈ 12.5 µg/mL)

SMILES: O=C1C2(CCCC13CC3c1ccc(OCc3ccccc3)cc1)CC2c1ccc(OCc2ccccc2)cc1 (centres undefined)
- MIC90 [1]: 24.3 µM (≈ 12.5 µg/mL)

SMILES: COc1ccc(C2CC23CCC2(CC2c2ccc(OC)c(OC)c2)C3=O)cc1OC (centres undefined)
- MIC90 [1]: > 30 µM

SMILES: NNC(=O)c1ccncc1 [ISONIAZID]
- MIC90 [1]: 4.7 µM (≈ 0.645 µg/mL)

SMILES: COc1ccc(C2CC23CCC2(CC2c2ccc(OC)cc2)C3=O)cc1 (centres undefined)
- MIC90 [1]: > 30 µM
